# Laboratory results: patent US5759835A, “Bacterial nitric oxide synthase” (priority 1995, dated 1998)
# “Also recorded” adds a separate entry of the source.
# Key:
# NOSNoc [1] = test: NOSNoc activity, oxyhemoglobin spectrophotometric assay (kinetics and inhibition); type: biochemical, Nocardia species (NRRL 5646); settings: for Vmax / Km: compound as substrate of NOSNoc; for Ki: model of competitive inhibition; for Mode of inhibition of NO synthesis by NOSNoc: with either L-arginine or L-NOHA as substrate
# Method: Assays for NOS activity were carried out using a Shimadzu 160 spectrophotometer by observing the increase in absorbance at 401 nm at 25° C. A typical sample assay contained 50 mM potassium phosphate buffer (pH 7.5), 4 μM oxyHb, 100 μM L-arginine of L-NOHA (for kinetic experiments), 100 μM NADPH, 1 mM CaCl2, 10 μM FAD, 10 μM FMN, 80 μM H4 B, 150 μM DTT and 0.1-2 μg enzyme in a final volume of 1 ml. For assays, the reference cuvette contained all components except for L-arginine or L-NOHA. All assays were initiated by adding enzyme.
# NOSNoc [2] = test: Stoichiometry of product formation and cofactor utilization by NOSNoc; type: biochemical, Nocardia species (NRRL 5646); settings: compound as substrate for NOSNoc
# Method: NOS activity was also determined by measuring the decrease in absorbance at 340 nm as NADPH was consumed during the conversation of L-arginine to L-citrulline by NOS. Furfine, E. S., et al. (1993) Biochemistry 32, pp. 8512-8517.
# Bredt, D. S., and Snyder, S. H. (1989) Proc. Natl. Acad. Sci. U.S.A. 86, pp. 9030-9033. Reaction samples (50 μl, 100 μM arginine and 1 μCi radioactivity)in 2 ml of stop buffer (20 mM HEPES and 2 mM EDTA, pH 5.5) were applied to a fresh 1-ml Dowex AG50W-X8 (Na+ form, 100-200 mesh) column. Labeled citrulline was eluted with 2 ml of distilled water, and the eluates were collected. Aliquots of 0.1 ml of eluate were dissolved in 5 ml of Budget Solve cocktail in 10 ml scintillation vials, and radioactivity was measured in a Beckman LS 3801 liquid scintillation system.
# Nitrite was measured spectrophotometrically using Griess reagent. Green, L. C., et al. (1982) Anal. Biochem. 126, pp. 131-138. […] After standing for 15-30 minutes at room temperature, the absorbance at 540 nm was measured. Nitrite concentrations were estimated by comparison with a standard curve at the range of 0-1.0 μg/ml prepared with standard sodium nitrite in water.
# Oxygen concentrations were calculated based on the deflection of the chart recorder versus 206 μM oxygen-total oxygen content in the reaction vessel. Koppenol, W. H. (1985) Adv. Free Radical Biol. Med. 1, 91-131.
# Stoichiometric determinations of oxygen consumed, NADPH oxidized, NO and citrulline formed, and kinetic experiments were carried out to confirm that L-NOHA is an intermediate in the biosynthesis of nitric oxide from L-arginine.
# [3] = EZ-FIT fit, table values are the mean S.D. of three determinations
# [4] = Table III, EZ-FIT fit, mean S.D. of three determinations
# [5] = L-Arginine as substrate, mean S.D. of three determinations
# [6] = N^G -Hydroxy-L-arginine as substrate, mean S.D. of three determinations
SMILES,Vmax (NOSNoc [1]),Km (NOSNoc [1]; [3]),Vmax (NOSNoc [1]; [4]),Citrulline formation (NOSNoc [2]),NADPH consump (NOSNoc [2]),Nitrile formation (NOSNoc [2]),Oxygen consump (NOSNoc [2]),Km (NOSNoc [1]; value as printed in the discussion),Ki (NOSNoc [1]; [5]),Ki (NOSNoc [1]; [6]),Mode of inhibition of NO synthesis by NOSNoc (NOSNoc [1]; listed as L-NMA),Mode of inhibition of NO synthesis by NOSNoc (NOSNoc [1]; listed as L-NNA)
N=C(N)NCCC[C@H](N)C(=O)O [L-Arginine],607 nmol/min/mg protein,5.7 µM,274 ± 13 nmole/min/mg protein,4.21 ± 0.17 nmol,8.77 ± 0.32 nmol,4.63 ± 0.28 nmol,8.89 ± 0.33 nmol,,,,,
N=C(NO)NCCC[C@H](N)C(=O)O [N^G -Hydroxy-L-arginine],549 nmol/min/mg protein,15.8 µM,303 ± 15 nmole/min/mg protein,4.54 ± 0.21 nmol,4.38 ± 0.24 nmol,4.57 ± 0.20 nmol,4.46 ± 0.16 nmol,15.8 µM,,,,
CNC(=N)NCCC[C@H](N)C(=O)O [N^G -methyl-L-arginine],,,,,,,,,6.2 ± 0.4 µM,21.4 ± 1.2 µM,typical competitive inhibition; also recorded: reversible competitive inhibitors,
N=C(NCCC[C@H](N)C(=O)O)N[N+](=O)[O-] [N^G -nitro-L-arginine],,,,,,,,,9.8 ± 0.6 µM,21.4 ± 1.2 µM,,typical competitive inhibition; also recorded: reversible competitive inhibitors
